Consider 2 compounds from patent US10639277B1, “Multi-functional echogenic immunoliposomes for directed stem cell delivery to atheroma” (BOARD OF REGENTS OF THE UNIVERSITY OF TEXAS SYSTEM, priority 2009, dated 2020).

One experiment concerns canine fetal myoblasts. Put plainly: SDF-1 induced transwell cell migration. The format is cell-based. Conditions: 30 μM. How it is done: Cells were placed at a concentration of 5×10^4/well in the upper chamber (BD Biosciences), and the chamber was placed in a 24-well culture plate (BD Biosciences) containing culture medium and 100 nM SDF-1 for measuring the migratory capacity of myoblast cells. After 48 hours of incubation at 37° C., the medium was removed, and the insert was transferred to a second plate containing Calcein-AM solution. The plates were incubated for 90 minutes at 37° C. in a 5% CO2 incubator. The fluorescence of migrating cells was read in a fluorescence microplate reader with bottom reading capabilities at excitation/emission wavelengths of 485/530 nm. […] Apoj expression can also provide protection against apoptotic stem cell death. This finding is consistent with published results that ApoJ expression can provide some protection against apoptotic cell death. Exposure to oxidized cholesterol or oxysterol often triggers apoptosis in a variety of cells and atheroma contains abundant oxysterols such as 7-ketocholsterol. Therefore, a study was done to establish that ApoJ expression will exert protective effects against apoptotic cell death for stem cells. After incubation of vascular smooth muscle cells from the aorta of ApoJ-knockout mice or wild-type mice with 10 μg/ml 7-ketocholsterol for 24-48 the cells were examined for viability by stained with a combination of acridine orange and ethidium bromide. […]

The subject of another experiment is KG-293 cells. In words: TCN-induced ApoJ expression and TNF-α induced apoptosis in KG-293 cells. Conditions: 10 ng/ml for 24- and 48-hours. The format is cell-based, human. From the text: Recent studies have shown that ApoJ can be induced by certain growth factors such as TGF-ß translocate to the nucleus participating in apoptosis regulation. To determine whether intracellular expression of ApoJ inhibits receptor-mediated apoptosis induced by cytokines, we constructed a plasmid (pkS7) with ApoJ cDNA insert lacking the sequence for the domain of protein secretion. The non-secreted, intracellular isoform of ApoJ gene mimics the intracellular isoform inducible by TGF-ß. Under regulation by a CMV promoter with TCN-responding elements, pKS7 transfection of HEK293 cells generated a stable cell line (KG-293) with ApoJ over expression. […] KG-293 cells over expressing the intracellular form of ApoJ also underwent dramatic alterations in morphology and proliferation.

As for `COc1cccc(-c2cc(=O)c3ccccc3o2)c1N` [PD98059], in the experiment with canine fetal myoblasts, the “effect on SDF-1 induced migration of ApoJ-overexpressing myoblasts” value is given as “did not have any significant impact”.

With TNF-α, in the experiment with KG-293 cells, the “apoptosis in control KG-293 cells not exposed to TCN” value is “marked apoptosis”.
